From patent US20030109537A1, “Methods and materials for treating bone conditions” (priority 2001, published 2003)

How the values were obtained:
Assay type in all cases: in vivo, rat
[1] = test system: PTH-induced marrow fibrosis and osteoclast resorption; assay: Bone histomorphometry in rats given trapidil, continuous PTH or both
Procedure: Treatment protocol. Three month-old female Sprague-Dawley rats were divided into 4 groups. In group 1 (n=9), osmotic pumps that delivered vehicle alone at a rate of 1 μl/hr for 7 days were implanted in each rat. […] In groups 3 and 4 (n=8 and 10, respectively), osmotic pumps were implanted in each rat that delivered 40 μg/kg/day hPTH at a rate of 1 μl/hr for 7 days. […] Tetracycline (20 mg/kg, Sigma Chemical Co., St. Louis, Mo.) and calcein (20 mg/kg, Sigma) fluorochrome labels were injected at the base of the tail on day 0 (tetracycline) and day 6 (calcein). On day 8, all rats were anesthetized and blood was collected by cardiac puncture. The blood samples were used to determine serum chemistry and PTH levels. Following blood collection, the rats were sacrificed by cervical dislocation, and tibiae were surgically removed and fixed in 70% ethanol for bone histomorphometry.
Bone histomorphometry. Proximal metaphyses were dehydrated in a graded series of ethanol, then infiltrated and embedded in methymethacrylate (Fisher Scientific, Fair Lawn, N.J.). […] Dynamic histomorphometric cancellous bone measurements were made in the unstained sections using fluorescent microscopy to detect the injected tetracycline and calcein markers. After obtaining the cancellous bone measurements, consecutive sections were stained with toluidine blue for bone cell and peritrabecular fibrosis measurements using light microscopy. A standard sampling site of 2.8 mm was located in the secondary spongiosa of the metaphysis at 1.5 mm distal to the growth plate.
All histomorphometric measurements were made with an Osteomeasure image analysis system (OsteoMetrics, Atlanta, Ga.) coupled to a photomicroscope and personal computer. All parameters were calculated according to standardized nomenclature. See, for example, Parfitt et al., J. Bone Miner. […] Bone volume was defined as the percentage of tissue volume consisting of cancellous bone. Tetracycline and calcein labels were determined as the percentage of bone perimeter labeled with fluorochrome. Mineral apposition rate (MAR) was defined as the average width between tetracycline and calcein label divided by interlabel time of 6 days. Bone formation rate (BFR) was defined as the product of MAR and the calcein label perimeter, and was expressed per bone surface (BFR/BS), bone volume (BFR/BV), or tissue volume (BFR/TV). Osteoblast surface was defined as a palisade of large basophilic cuboidal cells directly lying on top of the osteoid, and was expressed as a percent of bone perimeter. Osteoclast surface was defined as the bone perimeter lined by multinucleated cells regardless of the presence of erosion. Fibrotic perimeter was defined as the bone perimeter lined by multilayers of fibroblasts.
Statistical analysis. Multiple group comparisons were determined using one-way analysis of variance (one-way ANOVA) with statistical significance at P<0.05. Differences between pairs of groups were compared by the Fisher's protected least significant difference post-hoc test.
Serum and bone samples were collected after 7 days and analyzed.

PDGF-A mRNA = assay: RNase protection assay of steady state mRNA levels
Procedure: Induction of parathyroid bone disease. Three month-old female Sprague-Dawley rats (Harlan Sprague-Dawley, Inc., Indianapolis, Ind.) were randomly divided into 3 groups, with 5 rats per group. In group 1 (pulsatile or intermittent PTH), each rat received 80 μg/kg/day human PTH (1-34) (hPTH) in vehicle (150 mM NaCl, 1 mM HCl and 2% heat-inactivated rat serum) by subcutaneous (s.c.) injection once daily for 7 days. In group 2 (vehicle), an osmotic pump (Alza Corp., Mountainview, Calif.) that delivered vehicle alone at a rate of 1 μl/hr for 7 days was implanted in each rat. In group 3 (continuous PTH), an osmotic pump that delivered 40 μg/kg/day hPTH at a rate of 1 μl/hr for 7 days was implanted in each rat. On day 8, all rats were anesthetized with ketamine (50 mg/kg): xylazine HCl (5 mg/kg) and sacrificed by decapitation. Both tibiae were removed from each rat. Right tibiae were fixed by immersion in 70% ethanol then processed for bone histology to verify the appearance of peritrabecular fibrosis. Left tibiae were frozen in liquid N2 and stored at −80° C. until processed for RNA isolation.
Isolation of RNA. Frozen proximal tibial metaphyses were individually homogenized in guanidine isothiocyanate using a Spex freezer mill (Industries, Inc., Edison, N.J.). Total RNA was extracted from the homogenate using a modified organic solvent method. See Chomczynski et al., Anal. Biochem., 162:156-159 (1987). Isolated RNA yields were determined spectrophotometrically at 260 nm using standard methods.
RNase protection assay. Steady state mRNA levels for PDGF-A and other growth factors were determined using an RNase protection assay kit according to the manufacturer's protocol (Pharmingen, San Diego, Calif.). Quantitation of protected RNA fragments was performed by PhosphoImager analyses and normalized to glyceraldehyde-3-phosphate dehydrogenase (GAPDH) and the ribosomal structural protein L32.
RNase protection assays were performed as described in Example 1, for PDGF-A, BMP-1, BMP-6, BMP-3, and TGF-β1 to verify the microarray data. […]

[2] = test system: PDGF-A positive mast cells; assay: Immunohistochemistry for PDGF-A on bone samples
[3] = rat proximal tibial metaphysis cancellous bone, day 8, trapidil 40 mg/kg/day s.c., hPTH 40 μg/kg/day continuous, mean ± SEM

**Q.** human PTH (1-34) was tested. Which “cancellous bone formation (per bone surface, bone volume, or tissue volume)” value ([1]; continuous PTH, rats) did it give?
**A.** The value was “stimulated”.

**Q.** And the “osteoclast-lined surface (Oc.S/BS)” value ([1]; continuous PTH, rats, FIG. 2B)?
**A.** Its value is “increased”.

**Q.** What about the peritrabecular fibrosis ([1]; continuous PTH, rats, FIG. 3) of the same substance?
**A.** The peritrabecular fibrosis was “induced extensive peritrabecular fibrosis”.

**Q.** What about the “osteoblast surface (Ob.S/BS)” value ([1]; continuous PTH, trapidil given with continuous PTH, FIG. 2A) of the same substance?
**A.** Its value is “increased”.

**Q.** What about the “effect on cortical bone histomorphometry” value ([1]; fluorochrome-based analysis of tibial metaphyseal sections, rats) of the same substance?
**A.** The value was “neither trapidil nor PTH treatment had any effect”.

**Q.** What about the “BFR/BS (bone formation rate per bone surface)” value [1, 3] of the same substance?
**A.** Its value is 0.71 ± 0.10^ab μm^3/μm^2/day.

**Q.** What about the “BFR/BV (bone formation rate per bone volume)” value [1, 3] of the same substance?
**A.** The value was 2.30 ± 0.31^ab %.

**Q.** And the “BFR/TV (bone formation rate per tissue volume)” value [1, 3]?
**A.** The value was 0.63 ± 0.09^ab %.

**Q.** And the “BV/TV (bone volume per tissue volume)” value [1, 3]?
**A.** Its value is 27.25 ± 1.14%.

**Q.** And the Calcein label [1, 3]?
**A.** Its Calcein label is 48.08 ± 5.35^ab %.

**Q.** And the “MAR (mineral apposition rate)” value [1, 3]?
**A.** The value was 1.29 ± 0.08 μm/day.

**Q.** And the Tetracycline label [1, 3]?
**A.** The Tetracycline label was 5.65 ± 2.48%.

**Q.** What about the “PTH-induced regulation of mRNA levels for BMP-1, -3, and -6, as well as TGF-β” value (PDGF-A mRNA; RNase protection assay verifying microarray data) of the same substance?
**A.** Its value is “confirmed”.

**Q.** And the “increase in the mRNA levels for PDGF-A” value (PDGF-A mRNA; continuous PTH, rat tibial metaphysis, RNase protection assay, normalized to L32)?
**A.** Its value is 3.3 fold.

**Q.** What about the “effect on steady state mRNA levels for PDGF-A” value (PDGF-A mRNA; pulsatile PTH, rat tibial metaphysis, RNase protection assay) of the same substance?
**A.** The value was “no effect”.

**Q.** What about the “mast cell staining for PDGF-A peptide” value ([2]; PTH-treated rats) of the same substance?
**A.** Its value is “stained intensely”.

**Q.** And the “number of PDGF-A positive mast cells” value ([2]; PTH-treated vs vehicle, PTH+trapidil treated)?
**A.** The value was “increased”.
